We go through 12 compounds from ChEMBL document CHEMBL4622870, “Design, synthesis and evaluation of hydrazine and acyl hydrazone derivatives of 5-pyrrolidin-2-one as antifungal agents” (Bioorg Med Chem Lett, 2020).

In series [1] the test system is Fusarium solani. The experiment in a line: Antifungal activity against Fusarium solani assessed as fungal growth inhibition at 100 ug/ml by micro-dilution method relative to control. In kind it is functional. Conditions: read-out: GI.
Series [2] deals with Paecilomyces variotii. Nature of the series: Antifungal activity against Paecilomyces variotii assessed as fungal growth inhibition at 100 ug/ml by micro-dilution method relative to control. Format: functional. Conditions: read-out: GI. Background: Broth dilution looks for growth in wells or tubes with falling amounts of substance.
Another series deals with Penicillium ochrochloron. The experiment in a line: Antifungal activity against Penicillium ochrochloron assessed as fungal growth inhibition at 100 ug/ml by micro-dilution method relative to control. Format: functional. Conditions: read-out: GI.
A further series has as its system Aspergillus oryzae. Nature of the series: Antifungal activity against Aspergillus oryzae assessed as fungal growth inhibition at 100 ug/ml by micro-dilution method relative to control. Format: functional. Conditions: read-out: GI.
For another series, the system named is Botrytis cinerea. Nature of the series: Antifungal activity against Botrytis cinerea assessed as fungal growth inhibition at 100 ug/ml by micro-dilution method relative to control. Format: functional. Conditions: read-out: GI.
In another series the test system is Alternaria alternata. The experiment in a line: Antifungal activity against Alternaria alternata assessed as fungal growth inhibition at 100 ug/ml by micro-dilution method relative to control. Conditions: read-out: GI. In kind it is functional.
In series [3] the test system is Cladosporium cladosporioides. The experiment in a line: Antifungal activity against Cladosporium cladosporioides assessed as fungal growth inhibition at 100 ug/ml by micro-dilution method relative to control. In kind it is functional. Conditions: read-out: GI.
In another series the test system is Sclerotinia sclerotiorum. The experiment in a line: Antifungal activity against Sclerotinia sclerotiorum assessed as fungal growth inhibition at 100 ug/ml by micro-dilution method relative to control. Conditions: read-out: GI. Format: functional.
For series [4], the system named is Geotrichum candidum. The experiment in a line: Antifungal activity against Geotrichum candidum assessed as fungal growth inhibition at 100 ug/ml by micro-dilution method relative to control. In kind it is functional. Conditions: read-out: GI.
For the next series, the system named is Pichia kudriavzevii. The experiment in a line: Antifungal activity against Candida krusei assessed as fungal growth inhibition at 100 ug/ml by micro-dilution method relative to control. In kind it is functional. Conditions: read-out: GI.
The next series concerns Kluyveromyces marxianus. The experiment in a line: Antifungal activity against Candida pseudotropicalis assessed as fungal growth inhibition at 100 ug/ml by micro-dilution method relative to control. Format: functional. Conditions: read-out: GI.
For another series, the system named is Candida tropicalis. Nature of the series: Antifungal activity against Candida tropicalis assessed as fungal growth inhibition at 100 ug/ml by micro-dilution method relative to control. Format: functional. Conditions: read-out: GI.
The test system of series [5] is Geotrichum candidum. Nature of the series: Antifungal activity against Geotrichum candidum assessed as fungal growth inhibition by micro-dilution method. Format: functional.
Another series relates to HEK293. Nature of the series: Cytotoxicity against human HEK293 cells assessed as effect on cell viability measured after 72 hrs by MTS assay. In kind it is cell-based. Conditions: hek293, 72 h.
Series [6] relates to Fusarium solani. The experiment in a line: Antifungal activity against Fusarium solani assessed as fungal growth inhibition by micro-dilution method. In kind it is functional.
The test system of series [7] is Paecilomyces variotii. The experiment in a line: Antifungal activity against Paecilomyces variotii assessed as fungal growth inhibition by micro-dilution method. Format: functional.

What is called MIC50 is the lowest concentration that inhibits either 50% of growth or 50% of the strains tested, depending on the study. For `O=C1CC[C@@H](C(=O)N/N=C/c2ccc(C(F)(F)F)cc2)N1`, the inhibition of growth at 100 µg/mL came to 55% with Fusarium solani [1]; 44% in the series with Paecilomyces variotii [2]; 44% in the series on Penicillium ochrochloron; 0% in the series with Aspergillus oryzae; 0% in the series on Botrytis cinerea; 21% in the series with Alternaria alternata. The inhibition of growth at 100 µg/mL in series [3] turned out to be 11%; with Sclerotinia sclerotiorum, 0%; in the series on Geotrichum candidum [4], 85%; with Pichia kudriavzevii it was 21%; with Kluyveromyces marxianus, 21%; in the series with Candida tropicalis it was 17%. The MIC50 in the series with Geotrichum candidum [5] stood at 63.7 µg/mL. The Activity entry in the series with HEK293 was “Non-Toxic”.
On to `COc1cc(/C=N/NC(=O)[C@@H]2CCC(=O)N2)cc(OC)c1OC`, for which the inhibition of growth at 100 µg/mL was 0% in the series with Fusarium solani [1]; 26% in the series with Paecilomyces variotii [2]; 32% with Penicillium ochrochloron; 0% with Aspergillus oryzae; 0% with Botrytis cinerea; 29% with Alternaria alternata. The inhibition of growth at 100 µg/mL in series [3] came to 0%; with Sclerotinia sclerotiorum, 0%; in the series on Geotrichum candidum [4] it was 0%; in the series on Pichia kudriavzevii, 50%; in the series with Kluyveromyces marxianus, 18%; with Candida tropicalis, 0%. For the same compound, the Activity result in the series with HEK293 is “Non-Toxic”.
Consider `O=C1CC[C@@H](C(=O)N/N=C/c2ccccc2[N+](=O)[O-])N1`, for which the inhibition of growth at 100 µg/mL came out at 100% with Fusarium solani [1]; 3% with Paecilomyces variotii [2]; 13% with Penicillium ochrochloron; 32% in the series on Aspergillus oryzae; 27% with Botrytis cinerea; 0% in the series with Alternaria alternata. In addition, the inhibition of growth at 100 µg/mL came to 0% in series [3]; 21% in the series with Sclerotinia sclerotiorum; 50% in the series with Geotrichum candidum [4]; 0% with Pichia kudriavzevii; 35% in the series on Kluyveromyces marxianus; 19% in the series with Candida tropicalis. In addition, the MIC50 in the series with Fusarium solani [6] is 51.6 µg/mL. Further, in the series on HEK293, the Activity entry is reported as “Non-Toxic”.
Consider `O=C1CC[C@@H](C(=O)N/N=C/c2ccc(Cl)nc2)N1`, for which the inhibition of growth at 100 µg/mL with Fusarium solani [1] turned out to be 23%; in the series with Paecilomyces variotii [2], 42%; in the series on Penicillium ochrochloron, 62%; in the series on Aspergillus oryzae, 0%; with Botrytis cinerea it was 0%; with Alternaria alternata it was 0%. Also, the inhibition of growth at 100 µg/mL turned out to be 33% in series [3]; 0% in the series with Sclerotinia sclerotiorum; 72% in the series on Geotrichum candidum [4]; 2% in the series with Pichia kudriavzevii; 10% with Kluyveromyces marxianus; 0% with Candida tropicalis. Also, the MIC50 in the series with Geotrichum candidum [5] worked out at 38.4 µg/mL. For the same compound, in the series with HEK293, the Activity entry is listed as “Non-Toxic”.
Take `O=C1CC[C@@H](C(=O)N/N=C/c2ccc([N+](=O)[O-])cc2)N1`: the inhibition of growth at 100 µg/mL was found to be 100% with Fusarium solani [1]; 20% in the series on Paecilomyces variotii [2]; 14% in the series with Penicillium ochrochloron; 0% in the series on Aspergillus oryzae; 0% in the series with Botrytis cinerea; 30% with Alternaria alternata. The inhibition of growth at 100 µg/mL amounted to 40% in series [3]; 9% in the series on Sclerotinia sclerotiorum; 30% with Geotrichum candidum [4]; 22% with Pichia kudriavzevii; 38% in the series on Kluyveromyces marxianus; 42% in the series with Candida tropicalis. Moreover, the MIC50 in the series on Fusarium solani [6] amounted to 59.1 µg/mL. Besides, the Activity entry in the series with HEK293 is on record as “Non-Toxic”.
In the case of `O=C1CC[C@@H](C(=O)N/N=C/c2c(Cl)cccc2Cl)N1`, the inhibition of growth at 100 µg/mL was 60% in the series on Fusarium solani [1]; 13% in the series with Paecilomyces variotii [2]; 22% in the series on Penicillium ochrochloron; 12% in the series with Aspergillus oryzae; 0% in the series with Botrytis cinerea; 0% in the series on Alternaria alternata. The inhibition of growth at 100 µg/mL in [3] stood at 12%; in the series on Sclerotinia sclerotiorum, 58%; in the series on Geotrichum candidum [4] it was 73%; in the series with Pichia kudriavzevii, 0%; in the series with Kluyveromyces marxianus it was 32%; in the series with Candida tropicalis, 16%. Moreover, the MIC50 with Geotrichum candidum [5] was 1.8 µg/mL. The Activity result with HEK293 was “Non-Toxic”.
Regarding `COc1ccc(/C=N/NC(=O)[C@@H]2CCC(=O)N2)cc1`, the inhibition of growth at 100 µg/mL turned out to be 0% in the series on Fusarium solani [1]; 36% with Paecilomyces variotii [2]; 23% with Penicillium ochrochloron; 24% in the series with Aspergillus oryzae; 0% in the series on Botrytis cinerea; 3% with Alternaria alternata. For the same compound, the inhibition of growth at 100 µg/mL in series [3] came to 35%; in the series on Sclerotinia sclerotiorum it was 38%; with Geotrichum candidum [4] it was 25%; with Pichia kudriavzevii, 40%; in the series on Kluyveromyces marxianus, 40%; in the series on Candida tropicalis, 49%. In the series on HEK293, the Activity result is listed as “Non-Toxic”.
Take `O=C1CC[C@@H](C(=O)N/N=C/c2ccccc2O)N1`: the inhibition of growth at 100 µg/mL in the series on Fusarium solani [1] was found to be 40%; with Paecilomyces variotii [2], 14%; with Penicillium ochrochloron, 30%; with Aspergillus oryzae, 7%; in the series with Botrytis cinerea it was 0%; in the series on Alternaria alternata, 38%. In addition, the inhibition of growth at 100 µg/mL in series [3] amounted to 0%; with Sclerotinia sclerotiorum it was 21%; in the series with Geotrichum candidum [4] it was 70%; with Pichia kudriavzevii, 38%; with Kluyveromyces marxianus it was 18%; in the series on Candida tropicalis it was 7%. The MIC50 in the series on Geotrichum candidum [5] came to 62 µg/mL. The Activity entry in the series with HEK293 was “Non-Toxic”.
Turning to `Cc1ccc(/C=N/NC(=O)[C@@H]2CCC(=O)N2)cc1`, the inhibition of growth at 100 µg/mL with Fusarium solani [1] stood at 94%; with Paecilomyces variotii [2], 35%; with Penicillium ochrochloron, 0%; in the series on Aspergillus oryzae it was 11%; in the series on Botrytis cinerea it was 0%; in the series with Alternaria alternata, 0%. For the same compound, the inhibition of growth at 100 µg/mL was found to be 5% in [3]; 0% with Sclerotinia sclerotiorum; 28% with Geotrichum candidum [4]; 28% with Pichia kudriavzevii; 32% in the series with Kluyveromyces marxianus; 33% in the series on Candida tropicalis. In the series with Fusarium solani [6], the MIC50 came to 102 µg/mL. Further, the Activity result in the series on HEK293 is on record as “Non-Toxic”.
In the case of `O=C1CCC(NNc2ccccn2)N1` (racemic), the inhibition of growth at 100 µg/mL with Fusarium solani [1] was determined as 64%; in the series on Paecilomyces variotii [2], 11%; in the series with Penicillium ochrochloron, 21%; in the series with Aspergillus oryzae it was 23%; with Botrytis cinerea it was 0%; in the series with Alternaria alternata, 0%. For the same compound, the inhibition of growth at 100 µg/mL in [3] was found to be 0%; with Sclerotinia sclerotiorum, 0%; in the series with Geotrichum candidum [4], 32%; with Pichia kudriavzevii, 0%; in the series with Kluyveromyces marxianus, 0%; with Candida tropicalis, 8%. In addition, the Activity entry with HEK293 is “Non-Toxic”.
Take `CN(NC1CCC(=O)N1)c1ccccc1` (racemic): the inhibition of growth at 100 µg/mL with Fusarium solani [1] came to 100%; in the series with Paecilomyces variotii [2] it was 70%; in the series with Penicillium ochrochloron it was 56%; with Aspergillus oryzae, 45%; with Botrytis cinerea, 20%; in the series with Alternaria alternata, 0%. The inhibition of growth at 100 µg/mL was determined as 42% in series [3]; 46% with Sclerotinia sclerotiorum; 18% in the series with Geotrichum candidum [4]; 20% in the series with Pichia kudriavzevii; 61% in the series on Kluyveromyces marxianus; 20% in the series on Candida tropicalis. Besides, the MIC50 was found to be 31 µg/mL in the series with Fusarium solani [6] and 14.8 µg/mL in the series with Paecilomyces variotii [7]. Besides, the Activity result with HEK293 is “Non-Toxic”.
As to `OC(Cn1cncn1)(Cn1cncn1)c1ccc(F)cc1F` [FLUCONAZOLE], in the series on Geotrichum candidum [5], the MIC50 was found to be 1.6 µg/mL.
